Measured values published in US9988635B2, “Modulation of growth hormone receptor expression and insulin-like growth factor expression” (Antisense Therapeutics Limited, priority 2003, dated 2018).
In the oligonucleotide strings, read from the 5' end, every base follows the letter of its sugar. An asterisk marks phosphorothioate; unmarked linkages are phosphodiester. Other units and linkages are bracketed, terminal groups are in braces. A string of capitals states the bases alone. e = 2'-O-(2-methoxyethyl) (MOE); [5mC] = 5-methylcytosine; d = 2'-deoxy (DNA)

system: human growth hormone receptor mRNA; test: Inhibition of human growth hormone receptor mRNA levels in MCF7 cells, quantitative real-time PCR; format: cell-based; parameters: concentration or dose not given beside the values; details: averages from three experiments
Experimental: The human breast carcinoma cell line MCF-7 was obtained from the American Type Culture Collection (Manassas, Va.). MCF-7 cells were routinely cultured in DMEM low glucose (Gibco/Life Technologies, Gaithersburg, Md.) supplemented with 10% fetal calf serum (Gibco/Life Technologies, Gaithersburg, Md.). Cells were routinely passaged by trypsinization and dilution when they reached 90% confluence. Cells were seeded into 96-well plates (Falcon-Primaria #3872) at a density of 7000 cells/well for use in RT-PCR analysis.
When cells reached 65-75% confluency, they were treated with oligonucleotide. For cells grown in 96-well plates, wells were washed once with 100 μL OPTI-MEM™-1 reduced-serum medium (Invitrogen Corporation, Carlsbad, Calif.) and then treated with 130 μL of OPTI-MEM™-1 containing 3.75 μg/mL LIPOFECTIN™ (Invitrogen Corporation, Carlsbad, Calif.) and the desired concentration of oligonucleotide. Cells are treated and data are obtained in triplicate. After 4-7 hours of treatment at 37° C., the medium was replaced with fresh medium. Cells were harvested 16-24 hours after oligonucleotide treatment.
Total RNA was isolated using an RNEASY 96™ kit and buffers purchased from Qiagen Inc. (Valencia, Calif.) following the manufacturer's recommended procedures. Briefly, for cells grown on 96-well plates, growth medium was removed from the cells and each well was washed with 200 μL cold PBS. 150 μL Buffer RLT was added to each well and the plate vigorously agitated for 20 seconds. 150 μL of 70% ethanol was then added to each well and the contents mixed by pipetting three times up and down. The samples were then transferred to the RNEASY 96™ well plate attached to a QIAVAC™ manifold fitted with a waste collection tray and attached to a vacuum source. Vacuum was applied for 1 minute. 500 μL of Buffer RW1 was added to each well of the RNEASY 96™ plate and incubated for 15 minutes and the vacuum was again applied for 1 minute. An additional 500 μL of Buffer RW1 was added to each well of the RNEASY 96™ plate and the vacuum was applied for 2 minutes. 1 mL of Buffer RPE was then added to each well of the RNEASY 96™ plate and the vacuum applied for a period of 90 seconds. The Buffer RPE wash was then repeated and the vacuum was applied for an additional 3 minutes. The plate was then removed from the QIAVAC™ manifold and blotted dry on paper towels. The plate was then re-attached to the QIAVAC™ manifold fitted with a collection tube rack containing 1.2 mL collection tubes. RNA was then eluted by pipetting 140 μL of RNAse free water into each well, incubating 1 minute, and then applying the vacuum for 3 minutes.
Quantitation of growth hormone receptor mRNA levels was accomplished by real-time quantitative PCR using the ABI PRISM™ 7600, 7700, or 7900 Sequence Detection System (PE-Applied Biosystems, Foster City, Calif.) according to manufacturer's instructions. This is a closed-tube, non-gel-based, fluorescence detection system which allows high-throughput quantitation of polymerase chain reaction (PCR) products in real-time. As opposed to standard PCR in which amplification products are quantitated after the PCR is completed, products in real-time quantitative PCR are quantitated as they accumulate. This is accomplished by including in the PCR reaction an oligonucleotide probe that anneals specifically between the forward and reverse PCR primers, and contains two fluorescent dyes. A reporter dye (e.g., FAM or JOE, obtained from either PE-Applied Biosystems, Foster City, Calif., Operon Technologies Inc., Alameda, Calif. or Integrated DNA Technologies Inc., Coralville, Iowa) is attached to the 5′ end of the probe and a quencher dye (e.g., TAMRA, obtained from either PE-Applied Biosystems, Foster City, Calif., Operon Technologies Inc., Alameda, Calif. or Integrated DNA Technologies Inc., Coralville, Iowa) is attached to the 3′ end of the probe. When the probe and dyes are intact, reporter dye emission is quenched by the proximity of the 3′ quencher dye. […]

Question: For “272351 (antisense eA*eT*eA*eG*eA*dA*dA*dT*dG*dT*dT*dG*dT*d[5mC]*dA*eG*eG*e[5mC]*eT*eG) [compound 272351]”, which “% INHIB of human growth hormone receptor mRNA levels” value (from here on “% INHIB”) is on record?
Answer: Its value is 57%.

Question: How did the “% INHIB” value turn out when “272328 (antisense eG*eG*e[5mC]*eA*eT*dT*dG*dT*d[5mC]*d[5mC]*dA*dT*dA*dA*dG*eG*eA*eA*eG*eT) [compound 272328]” was run?
Answer: Its value is 85%.

Question: Which “% INHIB” value does the source give for “272312 (antisense eG*eG*eG*eT*eG*dG*dA*dT*d[5mC]*dT*dG*dG*dT*dT*dG*e[5mC]*eA*e[5mC]*eT*eA) [compound 272312]” here?
Answer: Its value is 57%.

Question: How did the “% INHIB” value turn out when “227501 (antisense eG*e[5mC]*eT*eA*eT*dT*dT*dT*dT*dG*dG*d[5mC]*dT*dA*dT*eA*eG*eA*eA*eA) [compound 227501]” was run?
Answer: Its value is 64%.

Question: For “272323 (antisense eT*eG*eT*eG*eT*d[5mC]*dT*dG*dA*dT*dT*d[5mC]*d[5mC]*dT*d[5mC]*eA*eG*eT*e[5mC]*eT) [compound 272323]”, which “% INHIB” value is on record?
Answer: The value was 67%.

Question: For “227481 (antisense eT*eG*eG*eT*eG*dA*dT*dG*dT*dA*dA*dA*dT*dG*dT*e[5mC]*e[5mC]*eT*e[5mC]*eT) [compound 227481]”, which “% INHIB” value is on record?
Answer: The value was 45%.

Question: How did the “% INHIB” value turn out when “227484 (antisense eT*eG*eG*eT*eA*dA*dG*dG*d[5mC]*dT*dT*dT*d[5mC]*dT*dG*eT*eG*eG*eT*eG) [compound 227484]” was run?
Answer: Its value is 63%.

Question: “272341 (antisense eG*eA*eG*eG*e[5mC]*dT*dA*dT*dA*dG*dA*dT*d[5mC]*dT*dT*eA*eT*e[5mC]*eT*e[5mC]) [compound 272341]” was tested. Which “% INHIB” value did it give?
Answer: The value was 65%.

Question: How did the “% INHIB” value turn out when “272330 (antisense eG*eA*eT*eG*e[5mC]*dA*d[5mC]*dT*dT*dT*dT*dT*dG*dG*d[5mC]*eA*eT*e[5mC]*eT*eG) [compound 272330]” was run?
Answer: Its value is 47%.

Question: For “272306 (antisense eT*eT*eA*eG*eA*dA*dG*dA*dA*dT*dT*dT*dG*dT*d[5mC]*eT*eT*eT*eA*eG) [compound 272306]”, which “% INHIB” value is on record?
Answer: Its value is 13%.

Question: For “272320 (antisense eA*eG*eA*eT*eT*dG*dT*dG*dT*dT*d[5mC]*dA*d[5mC]*d[5mC]*dT*e[5mC]*e[5mC]*eT*e[5mC]*eT) [compound 272320]”, which “% INHIB” value is on record?
Answer: Its value is 70%.

Question: Which “% INHIB” value does the source give for “272335 (antisense eA*eA*eA*eT*eA*d[5mC]*dG*dT*dA*dG*d[5mC]*dT*d[5mC]*dT*dT*eG*eG*eG*eA*eA) [compound 272335]” here?
Answer: The value was 47%.

Question: With “272326 (antisense eA*e[5mC]*eT*e[5mC]*eA*dG*d[5mC]*dT*d[5mC]*d[5mC]*dT*dT*d[5mC]*dA*dG*eT*eA*eG*eG*eA) [compound 272326]” as the substance, how does the “% INHIB” value read?
Answer: The value was 77%.

Question: “272321 (antisense eA*eA*e[5mC]*e[5mC]*e[5mC]*dA*dA*dG*dA*dG*dT*d[5mC]*dA*dT*d[5mC]*eA*e[5mC]*eT*eG*eT) [compound 272321]” was tested. Which “% INHIB” value did it give?
Answer: Its value is 64%.

Question: With “227482 (antisense eT*eT*e[5mC]*eT*eG*dT*dG*dG*dT*dG*dA*dT*dG*dT*dA*eA*eA*eT*eG*eT) [compound 227482]” as the substance, how does the “% INHIB” value read?
Answer: Its value is 53%.

Question: With “272343 (antisense eA*eA*eT*eG*e[5mC]*dT*d[5mC]*dT*d[5mC]*dA*dA*dG*dA*dA*dT*eG*eA*eT*eG*eT) [compound 272343]” as the substance, how does the “% INHIB” value read?
Answer: The value was 48%.

Question: How did the “% INHIB” value turn out when “272329 (antisense eA*e[5mC]*eT*eT*eT*dT*dT*dG*dG*d[5mC]*dA*dT*d[5mC]*dT*dG*e[5mC]*e[5mC]*eT*e[5mC]*eA) [compound 272329]” was run?
Answer: Its value is 63%.

Question: “227452 (antisense eT*e[5mC]*eA*eG*eG*dG*d[5mC]*dA*dT*dT*d[5mC]*dT*dT*dT*d[5mC]*e[5mC]*eA*eT*eT*e[5mC]) [compound 227452]” was tested. Which “% INHIB” value did it give?
Answer: The value was 79%.

Question: With “272324 (antisense eT*eA*eT*eG*eT*d[5mC]*dA*dT*dT*dG*dG*d[5mC]*dA*dT*dT*eG*eA*eA*eA*eT) [compound 272324]” as the substance, how does the “% INHIB” value read?
Answer: Its value is 53%.

Question: How did the “% INHIB” value turn out when “272359 (antisense eT*e[5mC]*e[5mC]*eA*eA*dA*dT*dA*dT*dT*d[5mC]*dT*dG*dG*dT*eA*e[5mC]*eT*eT*eT) [compound 272359]” was run?
Answer: The value was 72%.

Question: How did the “% INHIB” value turn out when “272314 (antisense eT*eA*eG*eG*eG*dT*d[5mC]*d[5mC]*dA*dT*d[5mC]*dA*dT*dT*dT*eT*e[5mC]*e[5mC]*eA*eT) [compound 272314]” was run?
Answer: Its value is 56%.

Question: “272309 (antisense eT*eA*eA*e[5mC]*eA*dG*d[5mC]*dT*dG*dT*dT*dT*dT*d[5mC]*d[5mC]*e[5mC]*e[5mC]*eA*eG*e[5mC]) [compound 272309]” was tested. Which “% INHIB” value did it give?
Answer: Its value is 85%.

Question: “272355 (antisense eT*eT*eG*eA*eG*dT*dG*dT*dT*d[5mC]*d[5mC]*dT*dA*dA*dA*eA*eT*eG*eA*eA) [compound 272355]” was tested. Which “% INHIB” value did it give?
Answer: The value was 24%.

Question: How did the “% INHIB” value turn out when “227483 (antisense eA*eG*eG*e[5mC]*eT*dT*dT*d[5mC]*dT*dG*dT*dG*dG*dT*dG*eA*eT*eG*eT*eA) [compound 227483]” was run?
Answer: The value was 75%.

Question: For “227499 (antisense eT*eA*eT*eA*eA*dA*dA*dG*dG*dG*d[5mC]*dT*dT*dT*dG*eT*eA*eA*eA*eA) [compound 227499]”, which “% INHIB” value is on record?
Answer: The value was 14%.

Question: How did the “% INHIB” value turn out when “272308 (antisense eG*e[5mC]*eT*eG*eT*dA*dT*dG*dG*dG*dT*d[5mC]*d[5mC]*dT*dA*eG*eG*eT*eT*e[5mC]) [compound 272308]” was run?
Answer: The value was 57%.

Question: With “272304 (antisense eT*eG*e[5mC]*eT*eA*dA*dG*dG*dA*dT*dA*dG*d[5mC]*dT*dG*e[5mC]*eT*eG*eT*eG) [compound 272304]” as the substance, how does the “% INHIB” value read?
Answer: The value was 48%.

Question: With “272357 (antisense eT*eA*eG*eG*eG*dT*d[5mC]*d[5mC]*dA*dT*d[5mC]*dT*dT*dT*d[5mC]*eA*eA*eG*eA*e[5mC]) [compound 272357]” as the substance, how does the “% INHIB” value read?
Answer: Its value is 62%.

Question: “227502 (antisense eG*eA*eT*eT*eG*dA*dG*dG*dT*dA*dT*dT*dT*dA*dG*e[5mC]*eT*eA*eT*eT) [compound 227502]” was tested. Which “% INHIB” value did it give?
Answer: The value was 56%.

Question: “272316 (antisense eA*eA*e[5mC]*eT*e[5mC]*dG*d[5mC]*d[5mC]*dA*dT*dA*dA*dT*dT*dT*e[5mC]*e[5mC]*eA*eG*eA) [compound 272316]” was tested. Which “% INHIB” value did it give?
Answer: Its value is 64%.

Question: “272331 (antisense e[5mC]*eA*eG*eT*e[5mC]*dG*d[5mC]*dA*dT*dT*dG*dA*dG*dT*dA*eT*eG*eA*eG*eG) [compound 272331]” was tested. Which “% INHIB” value did it give?
Answer: Its value is 67%.

Question: How did the “% INHIB” value turn out when “272334 (antisense eA*eA*eG*eA*eA*dA*dG*dG*d[5mC]*dT*dA*dA*dG*dG*d[5mC]*eA*eT*eG*eA*eT) [compound 272334]” was run?
Answer: The value was 61%.
